Source: the SangsterLogP compilation

Experiment: method code SF-AS, from DOI: 10.1016/s0008-6215(00)84247-0, PMID: 18283
Settings: pH 7.5

| logD | Structure (SMILES) |
| --- | --- |
| 0.38 | OCC1OC(SCCCc2ccccc2)C(O)C(O)C1O (stereo unspecified) |
| -0.1 | OC[C@H]1O[C@@H](SCCc2ccccc2)[C@H](O)[C@@H](O)C1O (stereo in doubt) |
| -0.47 | OC[C@H]1O[C@@H](SCc2ccccc2)[C@H](O)[C@@H](O)[C@H]1O |
| -0.56 | OC[C@H]1O[C@@H](Sc2ccccc2)[C@H](O)[C@@H](O)[C@H]1O |

Experiment: method code SF-CR, from DOI: 10.1016/s0008-6215(00)84247-0, PMID: 18283
Settings: pH 7.5

| logD | Structure (SMILES) |
| --- | --- |
| 0.39 | CCCCCS[C@@H]1O[C@H](CO)[C@H](O)[C@H](O)[C@H]1O |
| -0.54 | CCCCS[C@@H]1O[C@H](CO)[C@H](O)[C@H](O)[C@H]1O |
| -1.18 | CCCS[C@@H]1O[C@H](CO)[C@H](O)[C@H](O)[C@H]1O |
| -1.51 | CCS[C@@H]1O[C@H](CO)[C@H](O)[C@H](O)[C@H]1O |

The remaining lines, values behind:

| Structure (SMILES) | logD |
| --- | --- |
| CCCCCOC1C(O)C(S)OC(CO)C1O (stereo unspecified) | -0.18 |
| CCCCCOC1C(O)C(O)OC(CO)C1O (stereo unspecified) | -0.8 |
| CCCCCCCO[C@@H]1O[C@H](CO)[C@H](O)[C@H](O)[C@H]1O | 0.73 |
| CCOC1O[C@H](CO)[C@H](O)[C@H](O)[C@H]1O (stereo in doubt) | -2.28 |
| CC(C)S[C@@H]1O[C@H](CO)[C@H](O)[C@H](O)[C@H]1O | -1.26 |
| CCCO[C@@H]1O[C@H](CO)[C@H](O)[C@H](O)[C@H]1O | -1.66 |
| CCCCCCO[C@@H]1O[C@H](CO)[C@H](O)[C@H](O)[C@H]1O | 0.16 |
| CCCCCCCCS[C@@H]1O[C@H](CO)[C@H](O)[C@H](O)[C@H]1O | 2.13 |
| CCCCCCCS[C@@H]1O[C@H](CO)[C@H](O)[C@H](O)[C@H]1O | 1.5 |
| CCCCO[C@@H]1O[C@H](CO)[C@H](O)[C@H](O)[C@H]1O | -1.04 |
| CCCCCCS[C@@H]1O[C@H](CO)[C@H](O)[C@H](O)[C@H]1O | 0.86 |
| CCCCCCCCO[C@@H]1O[C@H](CO)[C@H](O)[C@H](O)[C@H]1O | 1.46 |
| CCCCCO[C@@H]1O[C@H](CO)[C@H](O)[C@H](O)[C@H]1O | -0.42 |
